From ChEMBL document CHEMBL5247623, “The SAR and action mechanisms of autophagy inhibitors that eliminate drug resistance” (Eur J Med Chem, 2022)
One block for each compound: values may come before it.

Assays:
[1] = biological target: Phosphatidylinositol 4,5-bisphosphate 3-kinase catalytic subunit gamma isoform (Homo sapiens, UniProt P48736); test: Inhibition of P13Kgamma (unknown origin)
[2] = Inhibition of V-ATPase (unknown origin); parameters: species or system Homo sapiens
[3] = biological target: AMP-activated protein kinase, AMPK; test: Inhibition of rat AMPK; assay type: protein-complex assay
BT-474 = test: Inhibition of autophagy in human BT-474 cells; assay type: functional, cell-based
[4] = biological target: T1, Serine/threonine-protein kinase ULK2 (Homo sapiens, UniProt Q8IYT8); test: Inhibition of ULK2 (unknown origin)
T1 sequence (Q8IYT8 whole entry): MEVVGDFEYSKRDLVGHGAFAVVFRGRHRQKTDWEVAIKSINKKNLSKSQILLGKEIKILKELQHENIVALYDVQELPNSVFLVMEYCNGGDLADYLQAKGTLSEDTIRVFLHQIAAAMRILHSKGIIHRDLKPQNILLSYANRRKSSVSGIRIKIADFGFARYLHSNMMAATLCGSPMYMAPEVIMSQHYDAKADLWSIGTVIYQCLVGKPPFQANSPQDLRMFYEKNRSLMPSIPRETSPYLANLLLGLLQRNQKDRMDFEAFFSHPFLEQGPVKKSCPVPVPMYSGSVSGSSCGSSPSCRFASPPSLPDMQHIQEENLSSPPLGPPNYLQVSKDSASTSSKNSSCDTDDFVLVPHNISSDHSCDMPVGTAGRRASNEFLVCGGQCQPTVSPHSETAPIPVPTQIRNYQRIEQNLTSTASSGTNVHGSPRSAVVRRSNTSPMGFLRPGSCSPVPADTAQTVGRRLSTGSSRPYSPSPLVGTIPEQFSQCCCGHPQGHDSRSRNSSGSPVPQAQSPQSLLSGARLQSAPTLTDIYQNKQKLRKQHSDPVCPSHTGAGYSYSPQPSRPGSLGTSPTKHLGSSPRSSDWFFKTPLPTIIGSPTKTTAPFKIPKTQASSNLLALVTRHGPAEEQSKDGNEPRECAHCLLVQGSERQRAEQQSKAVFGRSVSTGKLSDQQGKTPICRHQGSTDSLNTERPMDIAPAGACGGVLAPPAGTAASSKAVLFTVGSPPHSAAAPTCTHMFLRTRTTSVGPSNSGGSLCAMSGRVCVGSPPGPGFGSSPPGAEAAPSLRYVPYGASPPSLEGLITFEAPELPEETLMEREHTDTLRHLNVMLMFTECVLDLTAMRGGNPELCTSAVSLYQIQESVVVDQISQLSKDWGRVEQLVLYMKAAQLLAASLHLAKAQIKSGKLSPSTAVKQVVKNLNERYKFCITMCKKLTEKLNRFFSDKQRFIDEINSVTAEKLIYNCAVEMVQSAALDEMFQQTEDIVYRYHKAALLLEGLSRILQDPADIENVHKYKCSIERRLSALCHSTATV

[5] = Inhibition of bafilomycin induced autophagic flux in mouse embryonic fibroblast cells assessed as fold change in LC3-II levels at 1 uM incubated for 1 hr by immunoblot analysis relative to control; assay type: functional
[6] = biological target: T2, Serine/threonine-protein kinase ULK1 (Homo sapiens, UniProt O75385); test: Inhibition of ULK1 (unknown origin)
T2 sequence (O75385 whole entry): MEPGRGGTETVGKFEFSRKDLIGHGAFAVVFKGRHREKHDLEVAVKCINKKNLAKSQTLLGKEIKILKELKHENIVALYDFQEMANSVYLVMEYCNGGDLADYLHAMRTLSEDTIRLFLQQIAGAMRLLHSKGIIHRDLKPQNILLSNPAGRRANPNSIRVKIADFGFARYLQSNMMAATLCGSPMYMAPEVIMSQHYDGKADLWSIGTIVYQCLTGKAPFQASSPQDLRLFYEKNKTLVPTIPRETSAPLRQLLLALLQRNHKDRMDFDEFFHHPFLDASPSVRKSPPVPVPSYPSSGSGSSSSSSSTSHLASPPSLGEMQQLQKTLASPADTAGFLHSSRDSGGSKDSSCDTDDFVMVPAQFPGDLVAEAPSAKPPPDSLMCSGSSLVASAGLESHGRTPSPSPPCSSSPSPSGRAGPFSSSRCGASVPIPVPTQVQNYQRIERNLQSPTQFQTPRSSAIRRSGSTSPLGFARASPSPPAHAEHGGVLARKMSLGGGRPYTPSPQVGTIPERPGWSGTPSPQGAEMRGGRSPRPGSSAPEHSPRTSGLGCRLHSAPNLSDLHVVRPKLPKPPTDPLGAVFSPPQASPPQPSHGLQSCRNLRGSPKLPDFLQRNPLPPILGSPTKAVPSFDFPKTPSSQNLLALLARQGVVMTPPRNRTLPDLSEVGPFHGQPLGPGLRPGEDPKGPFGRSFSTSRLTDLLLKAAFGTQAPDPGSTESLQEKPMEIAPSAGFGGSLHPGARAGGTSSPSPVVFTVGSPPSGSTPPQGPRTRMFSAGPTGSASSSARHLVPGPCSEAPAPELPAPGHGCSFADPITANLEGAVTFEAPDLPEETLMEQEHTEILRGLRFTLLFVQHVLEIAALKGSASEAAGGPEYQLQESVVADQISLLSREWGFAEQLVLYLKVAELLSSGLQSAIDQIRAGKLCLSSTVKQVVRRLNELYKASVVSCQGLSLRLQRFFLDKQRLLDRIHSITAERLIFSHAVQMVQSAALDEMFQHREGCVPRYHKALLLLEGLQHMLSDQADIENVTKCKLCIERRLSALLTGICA

Chain of Phosphatidylinositol 4,5-bisphosphate 3-kinase catalytic subunit gamma isoform (P48736 whole entry, canonical isoform): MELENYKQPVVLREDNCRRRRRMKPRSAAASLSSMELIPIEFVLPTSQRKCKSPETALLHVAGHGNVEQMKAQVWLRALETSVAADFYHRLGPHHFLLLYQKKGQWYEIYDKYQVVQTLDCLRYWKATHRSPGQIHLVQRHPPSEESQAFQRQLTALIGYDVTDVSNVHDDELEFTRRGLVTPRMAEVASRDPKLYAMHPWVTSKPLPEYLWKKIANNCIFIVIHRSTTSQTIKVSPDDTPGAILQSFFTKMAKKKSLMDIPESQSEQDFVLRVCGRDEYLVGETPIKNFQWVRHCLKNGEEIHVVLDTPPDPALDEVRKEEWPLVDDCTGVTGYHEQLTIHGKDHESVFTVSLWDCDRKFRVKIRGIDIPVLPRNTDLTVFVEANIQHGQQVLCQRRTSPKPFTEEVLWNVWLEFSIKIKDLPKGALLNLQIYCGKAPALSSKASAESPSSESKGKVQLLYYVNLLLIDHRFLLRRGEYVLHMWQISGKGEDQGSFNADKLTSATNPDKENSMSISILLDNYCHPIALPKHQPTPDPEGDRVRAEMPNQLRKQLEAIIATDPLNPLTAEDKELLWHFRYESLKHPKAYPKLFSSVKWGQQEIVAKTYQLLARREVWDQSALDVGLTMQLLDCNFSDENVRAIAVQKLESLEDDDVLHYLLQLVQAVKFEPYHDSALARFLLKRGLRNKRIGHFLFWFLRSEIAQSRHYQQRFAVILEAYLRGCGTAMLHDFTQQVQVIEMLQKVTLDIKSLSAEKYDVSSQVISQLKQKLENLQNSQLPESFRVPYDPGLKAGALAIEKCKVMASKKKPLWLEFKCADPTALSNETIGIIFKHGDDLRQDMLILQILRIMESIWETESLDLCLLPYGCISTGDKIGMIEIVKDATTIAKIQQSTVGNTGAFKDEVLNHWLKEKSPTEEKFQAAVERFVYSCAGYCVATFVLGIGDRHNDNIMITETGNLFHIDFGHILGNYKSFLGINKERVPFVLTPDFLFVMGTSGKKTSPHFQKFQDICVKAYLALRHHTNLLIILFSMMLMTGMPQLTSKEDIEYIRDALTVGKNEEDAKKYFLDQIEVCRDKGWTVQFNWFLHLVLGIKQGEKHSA

SMILES: Cn1cnc(N)c2ncnc1-2 [3-METHYLADENINE]
IC50 [1]: 60000 nM

SMILES: CO/C1=C\C(C)=C\[C@@H](C)[C@@H](O)[C@@H](C)C/C(C)=C/C=C/[C@H](OC)[C@@H]([C@@H](C)[C@@H](O)[C@H](C)[C@@]2(O)C[C@@H](O)[C@H](C)[C@@H](C(C)C)O2)OC1=O [BAFILOMYCIN A1]
IC50 [2]: 0.44 nM

IC50 [3]: 62 nM
SMILES: CCN(CC)CCNC(=O)c1c(C)[nH]c(/C=C2\C(=O)Nc3ccc(F)cc32)c1C [SUNITINIB]

EC50 (BT-474; read-out: EC50): 9500 nM
SMILES: CN1CCN(Cc2cc(CNC3(c4ccccc4F)CCCC3)ccc2O)CC1

SMILES: c1cc(-c2cnn3cc(-c4ccc(OCCN5CCCCC5)cc4)cnc23)ccn1 [DORSOMORPHIN]
IC50 [3]: 1280 nM

SMILES: O=C(NCCCNc1nc(Nc2cccc(CN3CCOCC3)c2)ncc1C1CC1)C1CC1
IC50 [4]: 1.1 nM
fold change (FC) [5]: 2
IC50 [6]: 2.9 nM

EC50 (BT-474): 4800 nM
SMILES: CCN(CC)CCCC(C)Nc1ccnc2cc(Cl)ccc12 (centres undefined) [CHLOROQUINE]
